Assay results as given in patent US12715893B2, “Oxysterol compounds and uses thereof” (MAX BIOPHARMA, INC., priority 2020, dated 2026).

Tests used:
[1] = test system: Hedgehog target gene Gli1; experiment: Expression of Hedgehog target gene Gli1 (quantitative RT-PCR) in NIH3T3 cells; assay type: cell-based; details: for effect on Hh signaling (relative expression of Gli1) / effect on Gli/Hh signaling in cells treated with Conditioned Medium (relative expression of Gli1): 5 μM and 10 μM; for effect on Hh signaling (relative expression of Gli1): vs DMSO control (FIG. 5); for effect on Gli/Hh signaling in cells treated with Conditioned Medium (relative expression of Gli1): CAPAN-1 conditioned medium (CM), vs CM (FIG. 5, FIG. 7)
Protocol: (§1) The compounds described herein were tested on cell cultures to assess their effects on the mRNA expression of Hedgehog target genes Gli1. Conditioned medium (CM) was collected from CAPAN-1 human pancreatic tumor cells grown to confluence in DMEM containing 10% fetal bovine serum (FBS) and contains Hh proteins that activate the Hh pathway in cells receiving the CM. After 7 days of incubation of confluent cells with the described medium, CM was collected, spun for 5 minutes at 1800 rpm to remove dead cells and debris, and then frozen at −80° C. For treating cells, CM was thawed and diluted 1:2 to 1:6 with DMEM containing 5% FBS. NIH3T3 cells and M2 cells were cultured in 12-well plates with DMEM containing 10% FBS. The cells were then treated with DMEM containing 5% FBS or CM in the presence or absence of the compounds prepared in DMSO when they reach confluence. Quantitative RT-PCR was then performed according to the following approach. After 72 to 96 hours of the treatments, the cells were lysed and subjected to RNA extraction with RNease Plus Min kit (Qiagen). A portion of RNA from each well was subjected to Reverse Transcription (RT) using iScript Reverse Transcription Supermix (BioRad). QPCR was performed to test the expression of Hh target gene Gli1 using IQ SYBR Green Supermix (BioRad).

[2] = test system: Hedgehog target gene Gli1; experiment: Expression of Hedgehog target gene Gli1 (quantitative RT-PCR) in M2 cells; assay type: cell-based; details: 5% FBS in DMEM, 1 μM and 5 μM, vs DMSO control (FIG. 6)
Protocol: as §1

Hh signaling = details: background statement; Compound 8 in mesenchymal cells; cited from earlier work
TGFβ signaling = details: background statement; cited from earlier work
[3] = test system: Hedgehog target gene Gli1; experiment: Expression of Hedgehog target gene Gli1 (Q-RT-PCR, normalized to Oaz1) in C3H10T1/2 cells; assay type: cell-based; details: 5 μM and 10 μM, 72 hours (FIG. 9)
Protocol: as §1, with “A portion of RNA from each well was subjected to Reverse Transcription (RT) using iScript Reverse Transcription Supermix (BioRad). QPCR was performed to test the expression of Hh target gene Gli1 using IQ SYBR Green Supermix (BioRad).” left out
In a similar manner, C3H10T1/2 cells were pretreated for 2 hours with Compound 17 in DMEM containing 5% FBS. […] After 72 hours, RNA was extracted and analyzed by Q-RT-PCR for the expression of Hh target gene Gli1 and normalized to Oaz1 expression.

Compound	effect on Gli signaling (relative expression of Gli1) [2]	effect on Hh signaling (Hh signaling)	also measured
C[C@]12CC[C@H]3[C@@H](CC=C4C[C@@H](O)CC[C@@]43C)[C@@H]1CC[C@@H]2[C@H](O)CCc1ccc(F)cc1 [Compound 1, (3S,8S,9S,10R,13S,14S,17S)-17-((R)-3-(4-fluorophenyl)-1-hydroxypropyl)-10,13-dimethyl-2,3,4,7,8,9,10,11,12,13,14,15,16,17-tetradecahydro-1H-cyclopenta[a]phenanthren-3-ol]	stimulate Gli signaling	–	effect on Hh signaling (relative expression of Gli1) ([1]; 5% FBS in DMEM): increase Hh signaling
C[C@]12CC[C@H](O)C[C@@H]1CC[C@@H]1[C@@H]2CC[C@]2(C)[C@@H]([C@H](O)CCc3ccc(F)cc3)CC[C@@H]12 [Compound 2, (3S,5S,8R,9S,10S,13S,14S,17S)-17-((R)-3-(4-fluorophenyl)-1-hydroxypropyl)-10,13-dimethylhexadecahydro-1H-cyclopenta[a]phenanthren-3-ol]	–	–	effect on Hh signaling (relative expression of Gli1) ([1]; 5% FBS in DMEM): increase Hh signaling, although Compound 2 to a lesser degree than Compound 1; effect on Gli/Hh signaling in cells treated with Conditioned Medium (relative expression of Gli1) [1]: weak Hh antagonist
C[C@]12CC[C@H](O)C[C@@H]1[C@@H](O)C[C@@H]1[C@@H]2CC[C@]2(C)[C@@H]([C@H](O)CCc3ccc(F)cc3)CC[C@@H]12 [Compound 5, (3S,5S,6S,8S,9S,10R,13S,14S,17S)-17-((R)-3-(4-fluorophenyl)-1-hydroxypropyl)-10,13-dimethylhexadecahydro-1H-cyclopenta[a]phenanthrene-3,6-diol]	stimulate Gli signaling	–	–
CC[C@@](O)(CCc1cccnc1)[C@H]1CC[C@H]2[C@@H]3CC[C@H]4C[C@@H](O)CC[C@]4(C)[C@H]3CC[C@]12C [Compound 6, (3S,5S,8R,9S,10S,13S,14S,17S)-17-((R)-3-hydroxy-1-(pyridin-3-yl)pentan-3-yl)-10,13-dimethylhexadecahydro-1H-cyclopenta[a]phenanthren-3-ol]	–	–	effect on baseline expression of Gli ([1]; 5% FBS in DMEM, 10 μM, vs DMSO control (FIG. 8)): lowers the baseline expression of Gli; effect on Gli/Hh signaling in cells treated with Conditioned Medium (relative expression of Gli1) [1]: inhibits Gli signaling
CC(C)CCC[C@](C)(O)[C@H]1CC[C@H]2[C@@H]3CC=C4C[C@@H](O)CC[C@]4(C)[C@H]3CC[C@@]21C [Compound 8, 20(S)-hydroxycholesterol]	–	induces allosteric activation of Hh signaling	–
CC(C)CC[C@@H](O)[C@](C)(O)[C@H]1CC[C@H]2[C@@H]3CC=C4C[C@@H](O)CC[C@]4(C)[C@H]3CC[C@]12C [Compound 9, 20α,22(R)-dihydroxycholesterol]	–	blocks Hh signaling	–
CCCCCC[C@](C)(O)[C@H]1CC[C@H]2[C@@H]3C[C@H](O)[C@H]4C[C@@H](O)CC[C@]4(C)[C@H]3CC[C@@]21C [Compound 10, (3S,5S,6S,8R,9S,10R,13S,14S,17S)-17-((S)-2-hydroxyoctan-2-yl)-10,13-dimethylhexadecahydro-1H-cyclopenta[a]phenanthrene-3,6-diol, reference compound]	stimulate Gli signaling	Hh activator	–
C[C@]12CC[C@H](O)C[C@@H]1CC[C@@H]1[C@@H]2CC[C@@]2(C)[C@H]1CC[C@@H]2[C@](C)(O)CCc1ccc(F)cc1 [Compound 11, (3S,5S,8R,9S,10S,13S,14S,17S)-17-((R)-4-(4-fluorophenyl)-2-hydroxybutan-2-yl)-10,13-dimethylhexadecahydro-1H-cyclopenta[a]phenanthren-3-ol]	–	Hh inhibitors	–
C[C@]12CC[C@H]3[C@@H](CC=C4C[C@@H](O)CC[C@@]43C)[C@@H]1CC[C@@H]2[C@](C)(O)CCc1cccnc1 [Compound 12, (3S,8S,9S,10R,13S,14S,17S)-17-((R)-2-hydroxy-4-(pyridin-3-yl)butan-2-yl)-10,13-dimethyl-2,3,4,7,8,9,10,11,12,13,14,15,16,17-tetradecahydro-1H-cyclopenta[a]phenanthren-3-ol]	–	Hh inhibitors	effect on TGFβ signaling (TGFβ signaling): blocks TGFβ signaling
C[C@]12CC[C@H](O)C[C@@H]1CC[C@@H]1[C@@H]2CC[C@]2(C)[C@@H](C(CCc3ccc(F)cc3)=NO)CC[C@@H]12 [Compound 17, 3-(4-fluorophenyl)-1-((3S,5S,8R,9S,10S,13S,14S,17S)-3-hydroxy-10,13-dimethylhexadecahydro-1H-cyclopenta[a]phenanthren-17-yl)propan-1-one oxime]	–	–	effect on Hh signaling (relative expression of Gli1) ([3]; 5% FBS in DMEM): activator of Hh signaling; effect on conditioned medium induced Gli1 expression ([3]; CAPAN-1 CM, 2 hours pretreatment): further enhances the conditioned medium induced Gli1 expression
